In article PMC7271629 (ACS chemical biology, 2020):

Assays:
[1] = tested on: c-Myc expression in K562 chronic myelogenous leukemia cells; experiment: c-Myc expression in K562 cells; format: cell-based, human
[2] = tested on: BD1 and BD2 within a BET protein; conditions: cited from earlier work

SMILES	effect on c-Myc expression [1]	affinity of bivalent engagement of BD1 and BD2 [2]
Cc1sc2c(c1C)C(c1ccc(Cl)cc1)=N[C@@H](CC(=O)OC(C)(C)C)c1nnc(C)n1-2 [JQ1]	attenuated c-Myc expression	
Cc1sc2c(c1C)C(c1ccc(Cl)cc1)=N[C@@H](CC(=O)NCCOCCOCCOCCOCCOCCOCCOCCNC(=O)C[C@@H]1N=C(c3ccc(Cl)cc3)c3c(sc(C)c3C)-n3c(C)nnc31)c1nnc(C)n1-2 [MT1]		subnanomolar
